This note sets out measurements from patent publication US9663530B2, “5-oxa-2-azabicyclo[2.2.2]OCTAN-4-yl and 5-oxa-2-azabicyclo[2.2.1]heptan-4-yl derivatives” (Hoffmann-La Roche Inc., priority 2014, dated 2017).

Each structure is given as a SMILES string.

The target in one assay is mouse TAAR1 (Mus musculus (Mouse), UniProt Q923Y8). As to the kind of experiment: Radioligand binding assay on mouse TAAR1. The note with it: mouse TAAR1 (first value of the cell); membranes of HEK-293 cells stably expressing mouse TAAR1; read-out: Ki (μM) mouse/rat. On the procedure: (§1) Construction of TAAR Expression Plasmids and Stably Transfected Cell Lines
(§2) For the construction of expression plasmids the coding sequences of human, rat and mouse TAAR 1 were amplified from genomic DNA essentially as described by Lindemann et al.. The Expand High Fidelity PCR System (Roche Diagnostics) was used with 1.5 mM Mg^2+ and purified PCR products were cloned into pCR2.1-TOPO cloning vector (Invitrogen) following the instructions of the manufacturer. PCR products were subcloned into the pIRESneo2 vector (BD Clontech, Palo Alto, Calif.), and expression vectors were sequence verified before introduction in cell lines.
(§3) HEK293 cells (ATCC # CRL-1573) were cultured essentially as described by Lindemann et al. (2005). For the generation of stably transfected cell lines HEK293 cells were transfected with the pIRESneo2 expression plasmids containing the TAAR coding sequences (described above) with Lipofectamine 2000 (Invitrogen) according to the instructions of the manufacturer, and 24 hrs post transfection the culture medium was supplemented with 1 mg/ml G418 (Sigma, Buchs, Switzerland). After a culture period of about 10 d clones were isolated, expanded and tested for responsiveness to trace amines (all compounds purchased from Sigma) with the cAMP Biotrak Enzyme immunoassay (EIA) System (Amersham) following the non-acetylation EIA procedure provided by the manufacturer.
Radioligand Binding Assay on Mouse TAAR1
(§4) Membrane Preparation and Radioligand Binding.
HEK-293 cells stably expressing mouse TAAR1 were maintained at 37° C. and 5% CO2 in DMEM high glucose medium, containing fetal calf serum (10%, heat inactivated for 30 min at 56° C.), penicillin/streptomycin (1%), and 375 μg/ml geneticin (Gibco). Cells were released from culture flasks using trypsin/EDTA, harvested, washed twice with ice-cold PBS (without Ca^2+and Mg^2+), pelleted at 1,000 rpm for 5 min at 4° C., frozen and stored at −80° C. Frozen pellets were suspended in 20 ml HEPES-NaOH (20 mM, pH 7.4) containing 10 mM EDTA and homogenized with a Polytron (PT 6000, Kinematica) at 14,000 rpm for 20 s. The homogenate was centrifuged at 48,000×g for 30 min at 4° C. Subsequently, the supernatant was removed and discarded, and the pellet resuspended in 20 ml HEPES-NaOH (20 mM, pH 7.4) containing 0.1 mM EDTA using the Polytron (20 s at 14,000 rpm). This procedure was repeated and the final pellet resuspended in HEPES-NaOH containing 0.1 mM EDTA and homogenized using the Polytron. Typically, aliquots of 2 ml membrane portions were stored at −80° C. With each new membrane batch the dissociation constant (Kd) was determined via a saturation curve. The TAAR1 radioligand ^3[H]-(S)-4-[(ethyl-phenyl-amino)-methyl]-4,5-dihydro-oxazol-2-ylamine (described in WO 2008/098857) was used at a concentration equal to the calculated Kd value, that was usually around 0.7 nM, resulting in the binding of approximately 0.5% of the radioligand and a specific binding representing approximately 70% of the total binding. Nonspecific binding was defined as the amount of ^3[H]-(S)-4-[(ethyl-phenyl-amino)-methyl]-4,5-dihydro-oxazol-2-ylamine bound in the presence of 10 μM unlabeled ligand. All compounds were tested at a broad range of concentrations ([…]) in duplicates. The test compounds (20 […]μl/well) were transferred into a 96 deep well plate (TreffLab), and 180 μl of HEPES-NaOH (20 mM, pH 7.4) containing MgCl2 (10 mM) and CaCl2 (2 mM) (binding buffer), 300 μl of the radioligand ^3[H]-(S)-4-[(ethyl-phenyl-amino)-methyl]-4,5-dihydro-oxazol-2-ylamine at a concentration of 3.3×Kd in nM and 500 μl of the membranes (resuspended at […]) added. The 96 deep well plates were incubated for 1 hr at 4° C. Incubations were terminated by rapid filtration through Unifilter-96 plates (Packard Instrument Company) and glass filters GF/C (Perkin Elmer) presoaked for 1 hr in polyethylenimine (0.3%) and washed 3 times with 1 ml of cold binding buffer. […]

The next assay concerns the target rat TAAR1 (Rattus norvegicus (Rat), UniProt Q923Y9). In words: Radioligand binding assay on rat TAAR1. The note with it: rat TAAR1 (second value of the cell); membranes of HEK-293 cells stably expressing rat TAAR1; read-out: Ki (μM) mouse/rat. On the procedure: as §1, §2, §3
Radioligand Binding Assay on Rat TAAR1
as §4
HEK-293 cells stably expressing rat TAAR1 were maintained at 37° C. and 5% CO2 in DMEM high glucose medium, containing fetal calf serum (10%, heat inactivated for 30 min at 56° C.), penicillin/streptomycin (1%), and 375 μg/ml geneticin (Gibco). Cells were released from culture flasks using trypsin/EDTA, harvested, washed twice with ice-cold PBS (without Ca^2+ and Mg^2+), pelleted at 1,000 rpm for 5 min at 4° C., frozen and stored at −80° C. Frozen pellets were suspended in 20 ml HEPES-NaOH (20 mM, pH 7.4) containing 10 mM EDTA and homogenized with a Polytron (PT 6000, Kinematica) at 14,000 rpm for 20 s. The homogenate was centrifuged at 48,000×g for 30 min at 4° C. Subsequently, the supernatant was removed and discarded, and the pellet resuspended in 20 ml HEPES-NaOH (20 mM, pH 7.4) containing 0.1 mM EDTA using the Polytron (20 s at 14,000 rpm). This procedure was repeated and the final pellet resuspended in HEPES-NaOH containing 0.1 mM EDTA and homogenized using the Polytron. Typically, aliquots of 2 ml membrane portions were stored at −80° C. With each new membrane batch the dissociation constant (Kd) was determined via a saturation curve. […] Nonspecific binding was defined as the amount of ^3[H]-(S)-4-[(ethyl-phenyl-amino)-methyl]-4,5-dihydro-oxazol-2-ylamine bound in the presence of 10 μM unlabeled ligand. All compounds were tested at a broad range of concentrations ([…]) in duplicates. The test compounds (20 […]μl/well) were transferred into a 96 deep well plate (TreffLab), and 180 μl of HEPES-NaOH (20 mM, pH 7.4) containing MgCl2 (10 mM) and CaCl2 (2 mM) (binding buffer), 300 μl of the radioligand ^3[H]-(S)-4-[(ethyl-phenyl-amino)-methyl]-4,5-dihydro-oxazol-2-ylamine at a concentration of 3.3×Kd in nM and 500 μl of the membranes (resuspended at 50 μg protein per ml) added. The 96 deep well plates were incubated for 1 hr at 4° C. Incubations were terminated by rapid filtration through Unifilter-96 plates (Packard Instrument Company) and glass filters GF/C (Perkin Elmer) presoaked for 1 hr in polyethylenimine (0.3%) and washed 3 times with 1 ml of cold binding buffer. After addition of 45 μl of Microscint 40 (PerkinElmer) the Unifilter-96 plate was sealed and after 1 hr the ratioactivity counted using a TopCount Microplate Scintillation Counter (Packard Instrument Company).

rat TAAR1, sequence (Q923Y9 whole entry): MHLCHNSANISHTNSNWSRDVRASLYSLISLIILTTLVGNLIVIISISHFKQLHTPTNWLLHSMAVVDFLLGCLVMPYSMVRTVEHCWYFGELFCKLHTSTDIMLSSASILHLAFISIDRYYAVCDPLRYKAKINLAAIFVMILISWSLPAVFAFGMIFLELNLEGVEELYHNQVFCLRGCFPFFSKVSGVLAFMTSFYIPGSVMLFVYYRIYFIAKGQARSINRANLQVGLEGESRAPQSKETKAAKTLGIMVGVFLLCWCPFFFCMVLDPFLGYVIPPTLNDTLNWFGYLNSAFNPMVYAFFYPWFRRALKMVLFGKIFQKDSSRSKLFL
mouse TAAR1, sequence (Q923Y8 whole entry): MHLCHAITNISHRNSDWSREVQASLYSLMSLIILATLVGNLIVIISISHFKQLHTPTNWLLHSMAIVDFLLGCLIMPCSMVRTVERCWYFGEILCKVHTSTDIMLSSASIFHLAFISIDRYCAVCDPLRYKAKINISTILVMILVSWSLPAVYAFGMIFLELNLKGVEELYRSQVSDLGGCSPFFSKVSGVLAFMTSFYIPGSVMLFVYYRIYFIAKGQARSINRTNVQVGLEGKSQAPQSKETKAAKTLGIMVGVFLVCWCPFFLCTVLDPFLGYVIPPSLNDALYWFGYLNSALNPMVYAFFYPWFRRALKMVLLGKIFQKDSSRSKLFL

As for `CCCc1n[nH]c(C(=O)Nc2ccc(C[C@]34CN[C@H](CO3)C4)cc2)c1Cl` [Example 16, 4-Chloro-N-[4-[[(1 S,4S)-5-oxa-2-azabicyclo[2.2.1]heptan-4-yl]methyl]phenyl]-3-propyl-1H-pyrazole-5-carboxamide], the results for the Ki at mouse TAAR1 and on rat TAAR1 were 0.476 µM and 0.277 µM, respectively.

For `O=C(Nc1ccc(C[C@]23CN[C@H](CO2)C3)cc1)Nc1cccc(Cl)c1` [Example 2, 1-(3-Chlorophenyl)-3-[4-[[(1S,4S)-5-oxa-2-azabicyclo[2.2.1]heptan-4-yl]methyl]phenyl]urea], the Ki at mouse TAAR1 came out at 1.35 µM; at rat TAAR1, 0.0822 µM.

With `O=C(Nc1ccc(C[C@@]23CN[C@@H](CO2)C3)cc1)c1ccc(OCC(F)(F)F)nc1` [Example 47, N-[4-[[(1R,4R)-5-Oxa-2-azabicyclo[2.2.1]heptan-4-yl]methyl]phenyl]-6-(2,2,2-trifluoroethoxy)pyridine-3-carboxamide], the Ki on mouse TAAR1 and at rat TAAR1 was 0.0104 µM throughout.

On to `CCOc1ccc(C(=O)Nc2ccc(C[C@]34CN[C@H](CO3)C4)cc2)cn1` [Example 26, 6-Ethoxy-N-[4-[[(1S,4S)-5-oxa-2-azabicyclo[2.2.1]heptan-4-yl]methyl]phenyl]pyridine-3-carboxamide], for which the Ki on mouse TAAR1 is 1.14 µM; on rat TAAR1 it was 0.441 µM.

Regarding `FC(F)(F)c1cnc(Nc2ccc(C[C@]34CN[C@H](CO3)C4)cc2)cn1` [Example 32, N-[4-[[(1S,4S)-5-Oxa-2-azabicyclo[2.2.1]heptan-4-yl]methyl]phenyl]-5-(trifluoromethyl)pyrazin-2-amine], the results for the Ki on mouse TAAR1 and on rat TAAR1 were greater than 10 µM and 0.854 µM, respectively.

On to `O=C(Nc1ccc(C[C@]23CN[C@H](CO2)C3)cc1)c1ccc(OCC(F)(F)F)nc1` [Example 27, N-[4-[[(1 S,4S)-5-Oxa-2-azabicyclo[2.2.1]heptan-4-yl]methyl]phenyl]-6-(2,2,2-trifluoroethoxy)pyridine-3-carboxamide], for which the Ki was 0.0552 µM at mouse TAAR1 and 0.013 µM at rat TAAR1.

For `O=C(Nc1ccc(C[C@@]23CN[C@@H](CO2)C3)cc1)Nc1cccc(Cl)c1` [Example 24, 1-(3-Chlorophenyl)-3-[4-[[(1R,4R)-5-oxa-2-azabicyclo[2.2.1]heptan-4-yl]methyl]phenyl]urea], the Ki on mouse TAAR1 worked out at 0.0086 µM; at rat TAAR1, 0.0614 µM.

For `O=C(Nc1ccc(C23CCC(CO2)NC3)cc1)c1ccnc(C(F)(F)F)c1` (racemic) [Example 37, (RS)—N-[4-(5-Oxa-2-azabicyclo[2.2.2]octan-4-yl)phenyl]-2-(trifluoromethyl)pyridine-4-carboxamide], the Ki stood at 0.0377 µM on mouse TAAR1 and 1.44 µM on rat TAAR1.

In the case of `O=C(Nc1ccc(C[C@]23CN[C@H](CO2)C3)cc1)Nc1cccc(C(F)(F)F)c1` [Example 10, 1-[4-[[(1S,4S)-5-Oxa-2-azabicyclo[2.2.1]heptan-4-yl]methyl]phenyl]-3-[3-(trifluoromethyl)phenyl]urea], the Ki on mouse TAAR1 was 0.365 µM; on rat TAAR1, 0.0209 µM.

In the case of `O=C(Nc1ccc(C23CCC(CO2)NC3)cc1)Nc1cccc(Cl)c1` (racemic) [Example 68, (RS)-1-(3-Chlorophenyl)-3-[4-(5-oxa-2-azabicyclo[2.2.2]octan-4-yl)phenyl]urea], the values for the Ki at mouse TAAR1 and on rat TAAR1 were 0.0119 µM and 0.0681 µM, respectively.

With `CCc1ncc(C(=O)Nc2ccc(C34CCC(CO3)NC4)cc2)cn1` (racemic) [Example 35, (RS)-2-Ethyl-N-[4-(5-oxa-2-azabicyclo[2.2.2]octan-4-yl)phenyl]pyrimidine-5-carboxamide], the values for the Ki at mouse TAAR1 and on rat TAAR1 were 0.153 µM and 10 µM, respectively.

For `FC(F)(F)c1cnc(Nc2ccc(C34CCC(CO3)NC4)cc2)nc1` (racemic) [Example 65, (RS)—N-[4-(5-Oxa-2-azabicyclo[2.2.2]octan-4-yl)phenyl]-5-(trifluoromethyl)pyrimidin-2-amine], the values for the Ki at mouse TAAR1 and at rat TAAR1 were 0.122 µM and 3.84 µM, respectively.

For the compound `FC(F)(F)c1ccc(Nc2ccc(C34CCC(CO3)NC4)cc2)nc1` (racemic) [Example 4, (RS)—N-[4-(5-Oxa-2-azabicyclo[2.2.2]octan-4-yl)phenyl]-5-(trifluoromethyl)pyridin-2-amine], the results for the Ki at mouse TAAR1 and on rat TAAR1 were 0.0111 µM and 0.328 µM, respectively.

Turning to `O=C(Nc1ccc(C23CCC(CO2)NC3)cc1)c1ccc(Cl)cc1` (racemic) [Example 5, (RS)-4-Chloro-N-[4-(5-oxa-2-azabicyclo[2.2.2]octan-4-yl)phenyl]benzamide], the figures for the Ki at mouse TAAR1 and on rat TAAR1 were 0.0028 µM and 0.662 µM, respectively.

For `FC(F)(F)c1nccc(Nc2ccc(C34CCC(CO3)NC4)cc2)n1` (stereo not shown) [Example 36, N-[4-(5-Oxa-2-azabicyclo[2.2.2]octan-4-yl)phenyl]-2-(trifluoromethyl)pyrimidin-4-amine], the Ki on mouse TAAR1 was determined as 0.0471 µM; on rat TAAR1 it was 1.97 µM.

As for `Clc1ccc(Nc2ccc(C[C@]34CN[C@H](CO3)C4)cc2)nc1` [Example 30, 5-Chloro-N-[4-[[(1S,4S)-5-oxa-2-azabicyclo[2.2.1]heptan-4-yl]methyl]phenyl]pyridin-2-amine], the Ki is 2.55 µM on mouse TAAR1 and 0.621 µM at rat TAAR1.

Take `O=C(Nc1ccc(C[C@@]23CN[C@@H](CO2)C3)cc1)Nc1cccc(C(F)(F)F)c1` [Example 44, 1-[4-[[(1R,4R)-5-Oxa-2-azabicyclo[2.2.1]heptan-4-yl]methyl]phenyl]-3-[3-(trifluoromethyl)phenyl]urea]: the Ki on mouse TAAR1 was determined as 0.0046 µM; at rat TAAR1, 0.0108 µM.
